Reference: article PMC3561402, “Signaling Pathways of ESE-16, an Antimitotic and Anticarbonic Anhydrase Estradiol Analog, in Breast Cancer Cells” (PLoS ONE, 2013)

Target: T1, carbonic anhydrase II (wild-type CAII) (Homo sapiens, UniProt P00918)
T1 construct: gene CA2
Assay: […] exchange, membrane inlet mass spectrometry; Henderson tight-binding analysis
Format: biochemical

## CCc1cc2c(cc1OS(N)(=O)=O)CC[C@@H]1[C@@H]2CC[C@]2(C)C=CC[C@@H]12 [ESE-16, 2-ethyl-3-O-sulphamoyl-estra-1,3,5(10)16-tetraene]
  Ki: 0.569 ± 0.061 µM
